Experimental data as given in US12653860B2, “Compositions and methods for editing beta-globin for treatment of hemaglobinopathies” (Vertex Pharmaceuticals Incorporated, priority 2019, dated 2026).

Tests used:
Format in all cases: cell-based
[1] = system: BFP gene encoded in the AAVS1 locus of HEK293 T cells; test: BFP to GFP reporter assay of HDR repair (flow cytometry); conditions: for HDR efficiency (improvement): 1.25 μM SCR7 or 10 μM RS-1, any ssODN construct, relative to DMSO alone
Method: An in vitro assay was conducted to determine the ability of various inhibitors and enhancers to improve the efficiency of HDR repair in HEK293 T cells. Specifically, a fluorescent reporter-based screening approach was developed to identify molecules that enhance gene-editing by HDR. A reporter system was generated in HEK293 T cells comprising a genomic AAVS1 locus that encoded either a blue fluorescent protein (BFP) or a green fluorescent protein (GFP) within the AAVS1 locus. A gene encoding BFP can be converted to a gene encoding GFP by substitution of cytosine at position 199 to uridine (e.g., a C to U transition at position 199). By introducing a DSB within the BFP gene using a CRISPR/Cas9 gene-editing system, a homology donor DNA encoding the nucleotide substitution can be used to edit the BFP gene to a GFP gene by HDR repair. Thus, a gene edit that induces a C to U transition at position 199 results in a change in cellular fluorescence. A change in the fluorescence of the cell measured by flow cytometry can be used to quantify efficiency of HDR repair. Additionally, the reverse gene edit can be performed for an AAVS1 locus encoding a GFP gene, wherein a GFP can be converted to BFP by substitution of uridine at position 199 to cytosine.
To create the reporter system, an AAV-based homology donor DNA encoding either BFP or GFP was created. The AAV-BFP or AAV-GFP donor was flanked by homology arms that were 1000 base pairs in length and expression of BFP or GFP was driven by the MND promoter (e.g., a synthetic promoter that contains the U3 region of a modified Moloney murine leukemia virus long term terminal repeat with myeloproliferative sarcoma virus enhancer and deleted negative control region, SEQ ID NO: 58). The viral DNA was packaged into capsids of adeno-associated virus serotype 6 (AAV6) vector. Either the BFP or GFP donor was introduced using the AAV6 vector into the AAVS1 locus in HEK293 T cells by homologous recombination using CRISPR-Cas9 as follows: purified Cas9 protein was complexed with two different single gRNAs (sgRNAs) targeting the AAVS1 locus at SEQ ID NO: 3 (spacer sequence identified by SEQ ID NO: 4; gRNA obtained from Maxcyte) or SEQ ID NO: 5 (spacer sequence identified by SEQ ID NO: 6; gRNA obtained from Thermo Fisher). Cas9 protein used in the Exemplary section provided herein refers to Cas9 polypeptide derived from S pyogenes (SpCas9), unless indicated otherwise.
The Cas9-sgRNA complex was electroporated into the HEK293 T cells using the Lonza Nucleofector program CM-130. Approximately, 2 hours after electroporation, the cells were infected with various viral doses of AAV6 encoding a BFP (SEQ ID NO: 44) or GFP homology donor (SEQ ID NO: 47). One week later, cells were analyzed by flow cytometry to verify integration and expression of BFP or GFP in the AAVS1 locus. HEK293 T cells expressing BFP or GFP were sorted into single cells in 96-well plates. After −2 weeks of growth, DNA extracted from individual cells was analyzed for precise integration of the respective BFP or GFP gene into the AAVS1 locus by long-range PCR. This PCR analysis allowed for determination of whether the BFP/GFP gene was integrated in one or both alleles of the AAVS1 locus.
To introduce a gene edit that converts BFP to GFP, cells were electroporated with ribonucleoprotein (RNP) comprised of Cas9 and sgRNA that targets the BFP gene encoded in the AAVS1 locus. The sgRNA targeted a sequence in the BFP gene identified by SEQ ID NO: 7 (sgRNA spacer sequence identified by SEQ ID NO: 8). The sgRNA were prepared using a standard sgRNA cassette specific to SpCas9, as indicated by SEQ ID NO: 2 (wherein a, c, g, u represent 2′ O-methyl phosphorothioate nucleotides; s represents phosphorothioate nucleotides; and A, C, G, U, N represent canonical RNA nucleotides). The gRNAs used in the Exemplary section provided herein were sgRNAs prepared with the SpCas9 sgRNA cassette unless indicated otherwise. […]

[2] = system: GSD1a locus in HEK293 T cells; test: HDR editing of GSD1a locus with ssODN homology donors; conditions: FIG. 3; for HDR efficiency: 1.25 μM SCR7 or 10 μM RS-1
Method: 2×10^5 cells were edited with 1 μM Cas9 and 1.5 μM gRNA. The cells were transfected with two different ssODNs homology donors: 93-50 (SEQ ID NO: 39) or 25-100 (SEQ ID NO: 40). These two ssODN donors contain homology arms spanning both sides of the double-stranded break induced by the Cas9-guide and facilitate correction of a point mutation in the G6PC gene sequence by HDR. Cells were edited with 100 μM ssODN. The cells were treated with 2.5 μM Nu7441, 1.25 μM SCR7, or 10 μM RS-1 and the effect on HDR efficiency was evaluated.

[3] = system: GSD1a locus in HEK293 T cells; test: Gene correction by NHEJ repair at GSD1a locus with dsDNA donors; conditions: dsDNA donors 50-0 or 150-0; 2.5 μM Nu7441, 1.25 μM SCR7 or 10 μM RS-1; vs DMSO alone; FIG. 3
Method: The effect of Nu7441 treatment on gene correction by the NHEJ pathway was also evaluated. To do so, the cells were transfected with two different dsDNA donors: 50-0 (SEQ ID NO: 37) or 150-0 (SEQ ID NO: 38). Cells were edited with 1.5 g dsDNA donor. These dsDNA donors, lacking homology arms, introduce a second 3′ splice site into exon 2 at the GSD1a locus when inserted into the cut site induced by the Cas9-guide complex by NHEJ repair. The cells were treated with 2.5 μM Nu7441, 1.25 μM SCR7, or 10 μM RS-1 and gene correction by NHEJ repair was evaluated. […] Treatment with SCR7 or RS-1 had no effect over DMSO alone.

i53: polypeptide inhibitor of 53BP1 (SEQ ID NO: 70), delivered as mRNA (ORF SEQ ID NO: 69)
HDR efficiency ([1]; different doses of mRNA encoding i53, ssODNs Hn-91-61 and Ht-39-88, FIG. 1D): HDR efficiency increased

O=c1cc(N2CCOCC2)oc2c(-c3cccc4c3sc3ccccc34)cccc12 [Nu7441]
HDR efficiency, fold increase over DMSO alone ([2]; 2.5 μM Nu7441, ssODN 93-50 or 25-100): approximately 1.7 fold
HDR efficiency, fold higher ([1]; 2.5 μM Nu7441, each of four ssODN constructs, FIG. 1A): approximately 3 fold
HDR efficiency, high vs low concentration ([1]; 2.5 μM vs 0.6 μM Nu7441, FIG. 1B, 1C): approximately 1.5 fold
HDR efficiency at higher concentrations ([1]; concentrations of Nu7441 higher than 2.5 μM): no further improvement in HDR efficiency
gene correction by NHEJ repair [3]: substantial decrease in gene correction

O=c1[nH]c(=S)[nH]c(N=Cc2ccccc2)c1N=Cc1ccccc1 [SCR7]
HDR efficiency [2]: no effect
HDR efficiency (improvement) ([1]; FIG. 1A): no improvement in HDR efficiency
gene correction by NHEJ repair [3]: no effect

O=C(Nc1ccc(Br)cc1)c1ccc(Br)c(S(=O)(=O)NCc2ccccc2)c1 [RS-1]
HDR efficiency [2]: no effect
HDR efficiency (improvement) ([1]; FIG. 1A): no improvement in HDR efficiency
gene correction by NHEJ repair [3]: no effect
